Laboratory results reported in patent US4780476A, “Azoniaspironortropanol esters as asthma therapeutics and broncholytics” (Madaus GmbH & Co., priority 1985, dated 1988).
≈ marks a conversion by molar mass, not a printed value. Where two headings read alike, the source gives them in different places.

Columns and labels:
[1] = tested on: T1, isolated tracheal spirals of the guinea pig (Cavia porcellus); test: anticholinergic effectiveness on isolated tracheal spirals (antagonism against acetyl-β-methylcholine chloride); conditions: ratio of maximum agonist effect in presence (EAmB) and absence (EAm) of antagonist
T1 construct: the whole of the trachea is roughly freed beginning from the larynx up to the tracheal bifurcation, removed and transferred; from tissue; host or cells: isolated trachea (spiral strips) of male Pirbright white guinea pigs
Text: (§1) A model for this is the measurement of the anticholinergic effectiveness on isolated tracheal spirals of the guinea pig.
(§2) The test substance used was 3α-benziloyloxynortropane-8-spiro-1'-pyrrolidinium chloride (trospium chloride; MP 194), ipratropium bromide being used as comparison substance.
(§3) There is to be determined the anticholinergic effectiveness of MP 194 in comparison with the reference substance ipratropium bromide on the isolated tracheal spirals of the guinea pig.
(§4) 3.1.1. animal species: guinea pig
(§5) 3.1.2. animal strain: Pirbright white
(§6) 3.3.1. test substance (test antagonist) trospium chloride (MP 194) (M.W. 428)
(§7) 3.3.2. reference substance (reference antagonist) ipratropium bromide (Atrovent) (M.W. 412.4)
(§8) 3.3.3.1. acetyl-β-methylcholine chloride (Sigma) (M.W. 195.7)
(§9) The guinea pig is stunned by a blow on the neck. Subsequently, the whole of the trachea is roughly freed beginning from the larynx up to the tracheal bifurcation, removed and transferred to tempered (37° C.) and carbogenized tyrode solution. After surrounding connective tissue has been removed as far as possible, the preparation is cut up spirally by means of fine scissors at an angle of about 45° and separated into two equal sized sections. After weighing, both preparations are provided proximally and distally with a silk thread. One thread serves for fixing the preparation by means of a loop to the bottom of the bath and the other is connected via a hook with the transducer above the bath vessel.
(§10) Subsequently, the preparations, corresponding to the calibration, are prestressed with about 80 mN and equilibrated from 50-100 minutes. During the equilibration phase, the nutrient solution in the bath vessels is renewed in 15 minute intervals. As soon as the resting muscle tonus of the preparation has stabilized, there takes place the cumulative addition of the agonist, whereby the addition of the next highest concentration first takes place when no further increase of contraction is recognisable (plateau). When the maximum contraction height of the preparation is achieved, the cumulative agonist addition is ended and the preparation is rinsed. After a further equilibration phase (v. supra), the cumulative addition of the agonist is repeated but this time in the presence of the test or reference antagonist.
(§11) 3.6.1. The perfusion part consists of an L-shaped organ bath in the hollow space of which (longer limb) runs a double glass spiral through which the nutrient solution is passed into the actual bath vessel (28 ml. content; shorter limb). This bath vessel is divided into two chambers which are, however, connected together by two transverse connections. […] The inlet chambers as well as the feeding glass spirals are tempered from the outside to 37° C. by a separate liquid circulation. This tempering takes place with the help of a "Colora" ultra-thermostat type K (Colora Messtechnik GmbH, Dusseldorf, Germany) which serves as thermostat and pump. In order, in case of need, always to have available ready-for-use nutrient solution, above the organ bath is provided a double-walled storage container in which the nutrient solution is also tempered and carbogenised. This is connected via a glass stopcock and a polypropylene tube with double glass spiral in the interior of the organ bath.
(§12) 3.6.2. The measurement and recording part includes a transducer (Statham-Universal-Zelle UC-2; Hugo Sachs Elektronic KG, Hugstetten, Germany). By means of a hanging-in weight, a force of 40 mN is produced on the transducer which passes as electrical signal via a connecting cable to a bridge amplifier. The amplification is smoothly so regulated that the force provided corresponds to a constant value on the scale or an analogous value on the millimeter paper of the recorder (dependent upon the amplification; see below). After fixing the organ, the preparation is prestressed to the doubled mark, corresponding to 80 mN. […]

[2] = target: T2, isolated tracheal spirals of the guinea pig (Cavia porcellus, UniProt H0W1Z3); test: as above; conditions: for antagonism against acetyl-β-methylcholine chloride / anticholinergic effectiveness (in words): isolated guinea pig tracheal spirals
T2 construct: the whole of the trachea is roughly freed beginning from the larynx up to the tracheal bifurcation, removed and transferred; from tissue; host or cells: isolated trachea (spiral strips) of male Pirbright white guinea pigs
Text: as §1, §2, §3, §4, §5, §6, §7, §8, §9, §10, §11, §12

[3] = tested on: awake guinea pig (cholinergically-induced bronchial cramps); test: inhalative provocation with acetyl-β-methylcholine chloride aerosol on awake guinea pigs (broncholytic/protective action); type: in vivo; conditions: for EC50: Cavia porcellus, read-out: EC50, average effective concentration w of acetyl-β-methylcholine chloride (provocation substance) after pre-treatment; for probit analysis reaction % observed: animals reacting with dyspnoea; for probit analysis reaction % calculated: probit regression
Experimental: animal strain: Pirbright white test substance: trospium chloride (MP 194) (M.W. 428) dosage: 3×10^-7 mole ml^-1 kg^-1 mode of administration: intraperitoneally test substance: dehydrotrospium chloride (WG 71) (M.W. 426) […]
reference substance: atropine hydrochloride (Serva; M.W. 325.8) […]
reference substance: isoproterenol (Fluka; M.W. 247.72) dosage: […]
further substances: acetyl-β-methylcholine chloride (Sigma; M.W. 195.7) mode of administration: 0.5 ml. min^-1 by inhalation.
The guinea pigs intended for an experiment are, after an acclimatization time of at least 8 days, subjected twice to an aerosol of 0.1% acetyl-β-methylcholine chloride solution since, as is known from experience, during the first two inhalative provocations, the animals react with more distinct respiratory disturbances than in the case of the subsequent provocations (adaptation). If, in the case of the two inhalation phases, a nonsensitivity (absence of respiratory disturbances) is observed towards the exposure, these animals are excluded from the actual experiment.
For the purpose of aerosol provocation, the guinea pigs are placed individually in an inhalation chamber (see Section 3.6 hereinafter) in which 0.5 ml. of solution per minute are atomized as droplet aerosol by means of a special nozzle (Rhema, Hofheim, Germany). […] With the help of a stopwatch, there is recorded the time from the commencement of inhalation to the appearance of the asphyctic state; the animals are immediately removed from the inhalation chamber and, as a rule, recover in a very short period of time (recovery of consciousness and normalization of breathing). If, within 180 seconds, no dysponea occurs, the inhalation is discontinued.
One aerosol concentration is tested per test day; the time between the individual aerosol provocations is at least 1 week.
The inhalation chamber is a Plexiglass container specially made for this purpose, the lid of which can be closed in an air-tight manner by means of rubber sealing and grip closure means. The internal measurements of the chamber are 285×190×180 mm., which corresponds to a volume of about 9.75 liters. The special nozzle (Rhema, Hofheim, Germany, order No. 504104) is fixed to a recess on the lid and ensures a uniform supply of the available chamber space with the aerosol. The provocation solution is supplied to the nozzle via an infusion pump (Braun, Melsungen, Germany) (0.5 ml./minute) and there atomized with a superpressure of 180 kPa from an attached pressure gas bottle (artificial air, KW-free). For reasons of safety, the aerosol provocation is carried out under a ventilator.
The EC50, as well as the related confidence interval (p>95%), are determined from the probit regression lines of the percentage values (v. supra) provided with weight coefficients after line adaptation by the "maximum likelihood" method (10 iterations). Furthermore, there is examined the adaptation of the lines to the observed data by means of the chiquadrat test. For the evaluation, a calculation programme is commercially available (Olivetti).

[4] = acetyl-β-methylcholine chloride w=0.001000, 10 tested (isoproterenol 9), pre-treatment 3×10^-7 mol ml^-1 kg^-1 i.p.
[5] = acetyl-β-methylcholine chloride w=0.001000, pre-treatment 3×10^-7 mol ml^-1 kg^-1 i.p.
[6] = acetyl-β-methylcholine chloride w=0.001780, pre-treatment 3×10^-7 mol ml^-1 kg^-1 i.p.
[7] = acetyl-β-methylcholine chloride w=0.001780, trospium chloride 10 tested, dehydrotrospium chloride 9, atropine 9, isoproterenol 8, pre-treatment 3×10^-7 mol ml^-1 kg^-1 i.p.
[8] = acetyl-β-methylcholine chloride w=0.003160, 10 tested (isoproterenol 9), pre-treatment 3×10^-7 mol ml^-1 kg^-1 i.p.
[9] = acetyl-β-methylcholine chloride w=0.003160, pre-treatment 3×10^-7 mol ml^-1 kg^-1 i.p.
[10] = acetyl-β-methylcholine chloride w=0.005620, 10 tested (isoproterenol 9), pre-treatment 3×10^-7 mol ml^-1 kg^-1 i.p.
[11] = acetyl-β-methylcholine chloride w=0.005620, pre-treatment 3×10^-7 mol ml^-1 kg^-1 i.p.

T2 sequence (H0W1Z3 1-590): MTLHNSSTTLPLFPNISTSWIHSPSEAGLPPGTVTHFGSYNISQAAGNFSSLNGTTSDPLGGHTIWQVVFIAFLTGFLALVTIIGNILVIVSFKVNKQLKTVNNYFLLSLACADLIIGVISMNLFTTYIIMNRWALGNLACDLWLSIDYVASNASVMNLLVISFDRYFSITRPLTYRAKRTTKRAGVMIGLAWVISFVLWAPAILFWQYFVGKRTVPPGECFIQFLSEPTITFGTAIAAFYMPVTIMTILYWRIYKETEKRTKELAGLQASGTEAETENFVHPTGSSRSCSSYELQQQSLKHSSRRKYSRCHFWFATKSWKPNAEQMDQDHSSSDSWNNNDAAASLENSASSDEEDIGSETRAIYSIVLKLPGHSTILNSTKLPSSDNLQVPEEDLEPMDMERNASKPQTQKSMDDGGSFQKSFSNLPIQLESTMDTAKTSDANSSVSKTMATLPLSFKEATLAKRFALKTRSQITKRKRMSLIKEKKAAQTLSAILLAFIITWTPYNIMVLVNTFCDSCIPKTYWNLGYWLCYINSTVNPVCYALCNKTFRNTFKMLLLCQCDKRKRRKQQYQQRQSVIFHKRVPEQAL
T1 sequence (H0W1Z3 1-590): as above

Row | SMILES | number of animals reacting [3, 4] | probit analysis reaction % observed [3, 5] | probit analysis reaction % calculated [3, 5] | probit analysis reaction % observed [3, 6] | probit analysis reaction % calculated [3, 6] | number of animals reacting [3, 7] | number of animals reacting [3, 8] | probit analysis reaction % observed [3, 9] | probit analysis reaction % calculated [3, 9] | number of animals reacting [3, 10] | probit analysis reaction % observed [3, 11] | probit analysis reaction % calculated [3, 11] | also measured
1 | CC(C)[N+]1(C)C2CCC1CC(OC(=O)C(CO)c1ccccc1)C2 (stereo not drawn) [ipratropium bromide, reference compound] | – | – | – | – | – | – | – | – | – | – | – | – | EAmB/EAm ± s [1]: 1.10 ± 0.24; Kb ([2]; antagonism against acetyl-β-methylcholine chloride, read-out: pA2 ± s (converted)): 0.49 nM; quality of the antagonism (in words) ([2]; comparison of maximum effects in absence and presence of the antagonist): competitive antagonism; antagonism against acetyl-β-methylcholine chloride / anticholinergic effectiveness (in words) [2]: comparable, dosage-dependent antagonism; antagonism against acetyl-β-methylcholine chloride / anticholinergic effectiveness (in words) ([2]; listed as epratropium bromide): dosage dependent antagonism
2 | CC(C)NCC(O)c1ccc(O)c(O)c1 (stereo not drawn) [isoproterenol, reference compound] | 3 | 33.33% | 36.21% | 62.50% | 57.88% | 5 | 7 | 77.78% | 77.28% | 8 | 88.89% | 90.30% | EC50 ([3]; pre-treatment 3×10^-7 mol ml^-1 kg^-1 i.p., 15 min before inhalation, w of acetyl-β-methylcholine chloride in atomised solution, control animals w=0.000539, higher = more protection): 1450 µg/mL (≈ 6.86 mM)
3 | O=C(OC1CC2CCC(C1)[N+]21CC=CC1)C(O)(c1ccccc1)c1ccccc1 (stereo not drawn) [dehydrotrospium chloride, 3α-benziloyloxynortropane-8-spiro-1'-(3'-pyrrolinium)chloride] | 3 | 30.00% | 38.74% | 66.67% | 50.60% | 6 | 6 | 60.00% | 62.35% | 7 | 70.00% | 73.08% | broncholytic effectiveness compared with atropine and isoproterenol (in words) ([3]; 15 min after i.p. administration, equimolar dosages): comparable with or superior to the well known parasympatholytics atropine and the β-sympathomimetic isoproterenol; EC50 [3]: 1730 µg/mL; broncholytic effect (in words) ([3]; intraperitoneal, cholinergically-induced bronchial cramps, awake guinea pig): outstanding broncholytic effect
